Drawing on patent EP4596537A1, “NOVEL FLUORENE DERIVATIVE COMPOUND AND USE THEREOF” (JD Bioscience Inc., priority 2022, dated 2024), this text covers inhibition for 27 molecules.

This assay deals with PDHE1α S293. Kind of assay: In vitro PDH S293 phosphorylation inhibition (Western blot) in HEK293 cells. Format: cell-based, human. To be noted: Homo sapiens, 5 hours. As to the method: HEK293 cells, which are human embryonic kidney cells, were seeded at a density of 2 × 10^6 in a 60 mm dish, and cultured for 24 hours. After replacing the medium with a medium comprising 0.5% FBS, the compounds prepared according to Examples 1 to 54 were treated at various concentrations. 5 hours later, the cells were scraped off and collected into a 15 mL conical tube and centrifuged at 1500 rpm for 10 minutes. The supernatant was discarded, the resultant was washed with 1× PBS, and transferred to a 1.5 mL e-tube, followed by centrifugation at 10,000 rpm for 5 minutes. The supernatant was discarded again, a lysis buffer was added, and the cells were lysed on ice for 30 minutes. The cells were vortexed every 10 minutes to completely lyse, and centrifuged again at 10,000 rpm for 15 minutes at 4°C, and the supernatant was collected. The protein in the supernatant was quantified using BCA technique, and the sample buffer was added to 20 µg of protein and allowed to react at 70°C for 5 minutes. The expression of PDHE1α S232, S293, S300, and total PDHE1α proteins was detected by Western blot, and the resulting PDH S293 phosphorylation inhibition is shown in Table 6. […]
On the technique in general: In western blotting, separated proteins are transferred to a membrane and probed.
The inhibition is the percentage by which the read-out fell short of the control. Lower therefore signals little suppression. The molecule `COc1cc(-c2cnn(C(C)C(=O)NNc3ccc(F)cc3)c2)c2c(c1)C(O)(C(F)(F)F)c1ccccc1-2` (stereo not drawn) [Example 2, N'-(4-fluorophenyl)-2-(4-(9-hydroxy-2-methoxy-9-(trifluoromethyl)-9H-fluoren-4-yl)-1H-pyrazol-1-yl)propanehydrazide] came in with an inhibition at 1 µM of no less than 50%. As for `CC(C(=O)NNc1ccc(S(C)(=O)=O)cc1F)n1cc(-c2cc(F)cc3c2-c2ccccc2C3(O)C(F)(F)F)cn1` (stereo not drawn) [Example 3, N'-(2-fluoro-4-(methylsulfonyl)phenyl)-2-(4-(2-fluoro-9-hydroxy-9-(trifluoromethyl)-9H-fluoren-4-yl)-1H-pyrazol-1-yl)propanehydrazide], the figure is no less than 50%; as for `CC(C(=O)NNc1ccccc1)n1cc(-c2cc(F)cc3c2-c2ccccc2C3(O)C(F)(F)F)cn1` (stereo not drawn) [Example 4, 2-(4-(2-fluoro-9-hydroxy-9-(trifluoromethyl)-9H-fluoren-4-yl)-1H-pyrazol-1-yl)-N'-phenylpropanehydrazide], no less than 80%; as for `CC(C(=O)NNc1cccc2ccccc12)n1cc(-c2cc(F)cc3c2-c2ccccc2C3(O)C(F)(F)F)cn1` (stereo not drawn) [Example 5, 2-(4-(2-fluoro-9-hydroxy-9-(trifluoromethyl)-9H-fluoren-4-yl)-1H-pyrazol-1-yl)-N'-(naphthalen-1-yl)propanehydrazide], no less than 50%. Molecule `CC(C(=O)NNc1ccccc1Cl)n1cc(-c2cc(F)cc3c2-c2ccccc2C3(O)C(F)(F)F)cn1` (stereo not drawn) [Example 6, N'-(2-chlorophenyl)-2-(4-(2-fluoro-9-hydroxy-9-(trifluoromethyl)-9H-fluoren-4-yl)-1H-pyrazol-1-yl)propanehydrazide] registered an inhibition at 1 µM of no less than 50%. Regarding `CC(C(=O)NNc1ccc(Cl)cc1)n1cc(-c2cc(F)cc3c2-c2ccccc2C3(O)C(F)(F)F)cn1` (stereo not drawn) [Example 7, N'-(4-chlorophenyl)-2-(4-(2-fluoro-9-hydroxy-9-(trifluoromethyl)-9H-fluoren-4-yl)-1H-pyrazol-1-yl)propanehydrazide], the inhibition at 1 µM was no less than 50%. With `CC(C(=O)NNc1ccccn1)n1cc(-c2cc(F)cc3c2-c2ccccc2C3(O)C(F)(F)F)cn1` (stereo not drawn) [Example 8, 2-(4-(2-fluoro-9-hydroxy-9-(trifluoromethyl)-9H-fluoren-4-yl)-1H-pyrazol-1-yl)-N'-(pyridin-2-yl)propanehydrazide], the inhibition at 1 µM was no less than 80%. `COc1cc(-c2cnn(C(C)C(=O)NNc3ccc(S(C)(=O)=O)cc3F)c2)c2c(c1)C(O)(C(F)(F)F)c1ccccc1-2` (stereo not drawn) [Example 9, N'-(2-fluoro-4-(methylsulfonyl)phenyl)-2-(4-(9-hydroxy-2-methoxy-9-(trifluoromethyl)-9H-fluoren-4-yl)-1H-pyrazol-1-yl)propanehydrazide]: the inhibition at 1 µM was no less than 80%. `COc1cc(-c2cnn(C(C)C(=O)NNc3ccc(Cl)cc3)c2)c2c(c1)C(O)(C(F)(F)F)c1ccccc1-2` (stereo not drawn) [Example 10, N'-(4-chlorophenyl)-2-(4-(9-hydroxy-2-methoxy-9-(trifluoromethyl)-9H-fluoren-4-yl)-1H-pyrazol-1-yl)propanehydrazide] returned an inhibition at 1 µM of no less than 50%.

As to `COc1cc(-c2cnn(C(C)C(=O)NNc3cccc4ccccc34)c2)c2c(c1)C(O)(C(F)(F)F)c1ccccc1-2` (stereo not drawn) [Example 11, 2-(4-(9-hydroxy-2-methoxy-9-(trifluoromethyl)-9H-fluoren-4-yl)-1H-pyrazol-1-yl)-N'-(naphthalen-1-yl)propanehydrazide], the inhibition at 1 µM was no less than 50%.

With `COc1cc(-c2cnn(C(C)C(=O)NNc3ccccc3Cl)c2)c2c(c1)C(O)(C(F)(F)F)c1ccccc1-2` (stereo not drawn) [Example 12, N'-(2-chlorophenyl)-2-(4-(9-hydroxy-2-methoxy-9-(trifluoromethyl)-9H-fluoren-4-yl)-1H-pyrazol-1-yl)propanehydrazide], the inhibition at 1 µM is no less than 50%. `CC(C(=O)NNc1ccccc1F)n1cc(-c2cc(F)cc3c2-c2ccccc2C3(O)C(F)(F)F)cn1` (stereo not drawn) [Example 13, 2-(4-(2-fluoro-9-hydroxy-9-(trifluoromethyl)-9H-fluoren-4-yl)-1H-pyrazol-1-yl)-N'-(2-fluorophenyl)propanehydrazide] had an inhibition at 1 µM of no less than 50%. Regarding `CC(C(=O)NNc1ccc(C(=O)O)cn1)n1cc(-c2cc(F)cc3c2-c2ccccc2C3(O)C(F)(F)F)cn1` (stereo not drawn) [Example 14, 6-(2-(2-(4-(2-fluoro-9-hydroxy-9-(trifluoromethyl)-9H-fluoren-4-yl)-1H-pyrazol-1-yl)propanoyl)hydrazinyl)nicotinic acid], the inhibition at 1 µM is no less than 50%. Consider `COc1cc(-c2cnn(C(C)C(=O)NNc3ccc(C(=O)OC(C)(C)C)cn3)c2)c2c(c1)C(O)(C(F)(F)F)c1ccccc1-2` (stereo not drawn) [Example 15, tert-butyl 6-(2-(2-(4-(9-hydroxy-2-methoxy-9-(trifluoromethyl)-9H-fluoren-4-yl)-1H-pyrazol-1-yl)propanoyl)hydrazinyl)nicotinate], for which the inhibition at 1 µM was no less than 50%.

For the molecule `COc1cc(-c2cnn(C(C)C(=O)NNc3ccc(C(=O)O)cn3)c2)c2c(c1)C(O)(C(F)(F)F)c1ccccc1-2` (stereo not drawn) [Example 16, 6-(2-(2-(4-(9-hydroxy-2-methoxy-9-(trifluoromethyl)-9H-fluoren-4-yl)-1H-pyrazol-1-yl)propanoyl)hydrazinyl)nicotinic acid], the inhibition at 1 µM is no less than 50%. As to `COc1cc(-c2cnn(C(C)C(=O)NNc3ccccn3)c2)c2c(c1)C(O)(C(F)(F)F)c1ccccc1-2` (stereo not drawn) [Example 17, 2-(4-(9-hydroxy-2-methoxy-9-(trifluoromethyl)-9H-fluoren-4-yl)-1H-pyrazol-1-yl)-N'-(pyridin-2-yl)propanehydrazide], the inhibition at 1 µM is no less than 50%. Molecule `O=C(Cn1cc(-c2cc(F)cc3c2-c2ccccc2C3(O)C(F)(F)F)cn1)NNc1ccccn1` (stereo not drawn) [Example 18, 2-(4-(2-fluoro-9-hydroxy-9-(trifluoromethyl)-9H-fluoren-4-yl)-1H-pyrazol-1-yl)-N'-(pyridin-2-yl)acetohydrazide] registered an inhibition at 1 µM of no less than 80%. In the case of `CC(C)(C)OC(=O)c1ccc(NNC(=O)Cn2cc(-c3cc(F)cc4c3-c3ccccc3C4(O)C(F)(F)F)cn2)nc1` (stereo not drawn) [Example 19, tert-butyl 6-(2-(2-(4-(2-fluoro-9-hydroxy-9-(trifluoromethyl)-9H-fluoren-4-yl)-1H-pyrazol-1-yl)acetyl)hydrazinyl)nicotinate], the inhibition at 1 µM is no less than 50%. `O=C(Cn1cc(-c2cc(F)cc3c2-c2ccccc2C3(O)C(F)(F)F)cn1)NNc1ccc(C(=O)O)cn1` (stereo not drawn) [Example 20, 6-(2-(2-(4-(2-fluoro-9-hydroxy-9-(trifluoromethyl)-9H-fluoren-4-yl)-1H-pyrazol-1-yl)acetyl)hydrazinyl)nicotinic acid] came in with an inhibition at 1 µM of no less than 50%. As for `O=C(Cn1cc(-c2cc(F)cc3c2-c2ccccc2C3(O)C(F)(F)F)cn1)NNc1ccc(F)cc1` (stereo not drawn) [Example 21, 2-(4-(2-fluoro-9-hydroxy-9-(trifluoromethyl)-9H-fluoren-4-yl)-1H-pyrazol-1-yl)-N'-(4-fluorophenyl)acetohydrazide], the figure is no less than 50%; as for `CC(C(=O)NNc1ccc(S(C)(=O)=O)cc1)n1cc(-c2cc(F)cc3c2-c2ccccc2C3(O)C(F)(F)F)cn1` (stereo not drawn) [Example 22, 2-(4-(2-fluoro-9-hydroxy-9-(trifluoromethyl)-9H-fluoren-4-yl)-1H-pyrazol-1-yl)-N'-(4-(methylsulfonyl)phenyl)propanehydrazide], no less than 50%.

For `COc1cc(-c2cnn(C(C)C(=O)NNc3ccc(S(C)(=O)=O)cc3)c2)c2c(c1)C(O)(C(F)(F)F)c1ccccc1-2` (stereo not drawn) [Example 23, 2-(4-(9-hydroxy-2-methoxy-9-(trifluoromethyl)-9H-fluoren-4-yl)-1H-pyrazol-1-yl)-N'-(4-(methylsulfonyl)phenyl)propanehydrazide], the inhibition at 1 µM is no less than 50%. In the case of `CC(C(=O)NNc1cnccn1)n1cc(-c2cc(F)cc3c2-c2ccccc2C3(O)C(F)(F)F)cn1` (stereo not drawn) [Example 24, 2-(4-(2-fluoro-9-hydroxy-9-(trifluoromethyl)-9H-fluoren-4-yl)-1H-pyrazol-1-yl)-N'-(pyrazin-2-yl)propanehydrazide] it was no less than 50%. In the case of `COc1cc(-c2cnn(C(C)C(=O)NNc3cnccn3)c2)c2c(c1)C(O)(C(F)(F)F)c1ccccc1-2` (stereo not drawn) [Example 25, 2-(4-(9-hydroxy-2-methoxy-9-(trifluoromethyl)-9H-fluoren-4-yl)-1H-pyrazol-1-yl)-N'-(pyrazin-2-yl)propanehydrazide] it was no less than 50%; in that of `CC(C(=O)NNc1ccc(C(F)(F)F)cn1)n1cc(-c2cc(F)cc3c2-c2ccccc2C3(O)C(F)(F)F)cn1` (stereo not drawn) [Example 26, 2-(4-(2-fluoro-9-hydroxy-9-(trifluoromethyl)-9H-fluoren-4-yl)-1H-pyrazol-1-yl)-N'-(5-(trifluoromethyl)pyridin-2-yl)propanehydrazide], no less than 50%; in that of `COc1cc(-c2cnn(C(C)C(=O)NNc3ccc(C(F)(F)F)cn3)c2)c2c(c1)C(O)(C(F)(F)F)c1ccccc1-2` (stereo not drawn) [Example 27, 2-(4-(9-hydroxy-2-methoxy-9-(trifluoromethyl)-9H-fluoren-4-yl)-1H-pyrazol-1-yl)-N'-(5-(trifluoromethyl)pyridin-2-yl)propanehydrazide], no less than 50%. Turning to `CC(C(=O)NNc1ncccn1)n1cc(-c2cc(F)cc3c2-c2ccccc2C3(O)C(F)(F)F)cn1` (stereo not drawn) [Example 28, 2-(4-(2-fluoro-9-hydroxy-9-(trifluoromethyl)-9H-fluoren-4-yl)-1H-pyrazol-1-yl)-N'-(pyrimidin-2-yl)propanehydrazide], the inhibition at 1 µM was no less than 50%.
